Test results: patent publication US20250313546A1, “NUCLEIC ACID BINDERS” (UNIVERSITY OF STRATHCLYDE, priority 2022, published 2025)
≈ marks a conversion by molar mass, not a printed value.

Assays:
[1] = system: Genomic double stranded DNA (salmon); assay: Fluorescence intercalator displacement (FID) assay, SYBR-safe probe; conditions: 20 μM compound, 30° C., lower % = stronger binding
Description: (§1) The ability of compounds of the invention to bind to DNA and RNA was assessed using a fluorescence intercalator displacement assay. Genomic double stranded DNA (salmon) or PolyAU double stranded RNA is treated with probe molecule (Sybr-Safe) that increases its fluorescence upon binding to nucleic acids.
(§2) polyAU RNA (Polyadenylic acid—Polyuridylic acid sodium salt, double-stranded homopolymer, P1537, Merck) or genomic DNA (Deoxyribonucleic acid sodium salt from salmon testes, D1626, Merck) was dissolved in 1 mM pH 7.4 phosphate buffer (containing 0.27 mM potassium chloride, 13.7 mM sodium chloride) to a concentration of 1 mg/mL in, SybrSafe (SYBR® Safe DNA Gel Stain, ×10,000 in DMSO, S33102 Invitrogen) was used as supplied by the manufacturer in DMSO, and compounds of the invention were prepared as 10 mM stocks in DMSO. These stock solutions were diluted appropriately with each other and 1 mM phosphate buffer to give test solutions comprised of 20 μM compound of the invention, 12500-fold dilution of SybrSafe and 3.76 ng/mL RNA/DNA. Control solutions of RNA/DNA and SybrSafe, RNA/DNA, and SybrSafe at these concentrations were also prepared. Test and control solutions were heated to 30° C. and the fluorescence of each solution was measured using the SYBER filter setting of a StepOnePlus using melt analysis mode (StepOne Software v2.3). The reduction of fluorescence due to the binding of the compound of the invention to the RNA/DNA was calculated as a normalised percentage based on the fluorescence measured due to the control with SybrSafe and RNA/DNA as maximum and the control with only SybrSafe as minimum.
(§3) A reduction in normalised % is indicative of probe displacement and thus strong nucleic acid binding.

[2] = system: PolyAU double stranded RNA; assay: as above; conditions: 20 μM compound, 30° C., lower % = stronger binding
Description: as §1, §2, §3

[3] = system: Staphylococcus aureus (ATCC 43300); assay: Antibacterial MIC, broth microdilution (CLSI); format: cell-based; conditions: for MIC80: Staphylococcus aureus, ATCC43300, read-out: MIC80 S. aureus
[4] = system: Escherichia coli (ATCC 25922); assay: Antibacterial MIC, broth microdilution (CLSI); format: cell-based; conditions: Escherichia coli, ATCC25922; read-out: MIC80 E. coli
[5] = system: A. fumigatus A1160 (MFIG001); conditions: Aspergillus fumigatus, read-out: MIC99 A. fumigatus A1160
[6] = system: Enterococcus faecalis (ATCC 51299); assay: Antibacterial MIC, broth microdilution (CLSI); format: cell-based; conditions: for MIC80: Enterococcus faecalis, ATCC51299, read-out: MIC80 E. faecalis
[7] = system: C. neoformans (F10025); conditions: Cryptococcus neoformans, read-out: MIC99 C. neoformans
[8] = system: T. vaginalis; assay: Trichomonas resorufin assay; format: cell-based; conditions: for IC50: Trichomonas vaginalis, read-out: IC50 T. vaginalis; for T. vaginalis Selectivity Indices, Group: SI, IC50 (μM)/IC50 (μM), HEK293 cytotoxicity
[9] = system: Candida glabrata (ACPF3309); conditions: Nakaseomyces glabratus, read-out: MIC99 Candida glabrata
[10] = SI, IC50 (μM)/MIC80 (μM), HEK293 cytotoxicity, Alkyl Amidines and NH Pyrroles

[H]/N=C(\CCNC(=O)c1cc(NC(=O)c2cc(NC(=O)c3ccc(C=Cc4ccc5nonc5c4)cc3)cn2C)cn1C)NC [Ia3, (E)-4-(4-(2-(benzo[c][1,2,5]oxadiazol-5-yl)vinyl)benzamido)-N-(5-((3-imino-3-(methylamino)propyl)carbamoyl)-1-methyl-1H-pyrrol-3-yl)-1-methyl-1H-pyrrole-2-carboxamide]
% Normalised Fluorescence with gDNA [1]: 13% | % Normalised Fluorescence with polyAU RNA [2]: 38% | MIC80 [3]: < 5 µM | MIC80 [4]: > 100 µM | MIC99 [5]: < 5 µg/mL

C/N=C(/CCNC(=O)c1cc(NC(=O)c2cc(NC(=O)c3ccc(/C=C/c4ccc(C(F)(F)F)cc4)cc3)cn2C)cn1C)NC [Ia5, 1-methyl-4-(1-methyl-4-(4-((E)-4-(trifluoromethyl)styryl)benzamido)-1H-pyrrole-2-carboxamido)-N—((Z)-3-(methylamino)-3-(methylimino)propyl)-1H-pyrrole-2-carboxamide]
% Normalised Fluorescence with gDNA [1]: 21% | % Normalised Fluorescence with polyAU RNA [2]: 12% | MIC80 [3]: < 5 µM | MIC80 [4]: > 100 µM | MIC99 [5]: 25 to 50 µg/mL (≈ 39.5 to 78.9 µM)

C/N=C(/CCNC(=O)c1cc(NC(=O)c2cc(NC(=O)c3ccc(/C=C/c4ccc5ccccc5c4)cc3)cn2C)cn1C)NC [Ia7, 1-methyl-4-(1-methyl-4-(4-((E)-2-(naphthalen-2-yl)vinyl)benzamido)-1H-pyrrole-2-carboxamido)-N—((Z)-3-(methylamino)-3-(methylimino)propyl)-1H-pyrrole-2-carboxamide]
% Normalised Fluorescence with gDNA [1]: 10% | % Normalised Fluorescence with polyAU RNA [2]: 24% | MIC80 [3]: < 5 µM | MIC80 [4]: > 100 µM | MIC99 [5]: 25 to 50 µg/mL (≈ 40.6 to 81.2 µM)

COc1ccc(/C=C/c2ccc(C(=O)Nc3cc(C(=O)Nc4cc(C(=O)NCCC(=N)NC(C)C)n(C)c4)n(C)c3)cc2)cc1 [Ia18, (E)-N-(3-imino-3-(isopropylamino)propyl)-4-(4-(4-(4-methoxystyryl)benzamido)-1-methyl-1H-pyrrole-2-carboxamido)-1-methyl-1H-pyrrole-2-carboxamide]
% Normalised Fluorescence with gDNA [1]: 6% | % Normalised Fluorescence with polyAU RNA [2]: 9% | MIC80 [6]: 5 to 25 µM (≈ 3.05 to 15.2 µg/mL) | S. aureus Selectivity Indices, Group [3, 10]: B (Group B: 3 < SI <= 5) | MIC80 [3]: 5 to 25 µM (≈ 3.05 to 15.2 µg/mL) | MIC99 [7]: 5 to 25 µg/mL (≈ 8.2 to 41 µM) | MIC80 [4]: 25 to 100 µM (≈ 15.2 to 61 µg/mL) | IC50 [8]: 5 to 50 µM | MIC99 [5]: > 50 µg/mL

[H]/N=C(\CCNC(=O)c1cc(NC(=O)c2cc(NC(=O)c3ccc(C=Cc4ccc5nonc5c4)cc3)cn2C)cn1C)NCCCN(C)C [Ia46, (E)-4-(4-(2-(benzo[c][1,2,5]oxadiazol-5-yl)vinyl)benzamido)-N-(5-((3-((3-(dimethylamino)propyl)amino)-3-iminopropyl)carbamoyl)-1-methyl-1H-pyrrol-3-yl)-1-methyl-1H-pyrrole-2-carboxamide]
% Normalised Fluorescence with gDNA [1]: 10% | % Normalised Fluorescence with polyAU RNA [2]: 2% | MIC80 [6]: > 100 µM | MIC80 [3]: 25 to 100 µM (≈ 16.6 to 66.5 µg/mL) | MIC80 [4]: > 100 µM | IC50 [8]: 5 to 50 µM

[H]/N=C(\CCNC(=O)c1cc(NC(=O)c2cc(NC(=O)c3ccc(C=Cc4ccc5nonc5c4)cc3)cn2C)cn1C)N1CCN(C)CC1 [Ib4, (E)-4-(4-(2-(benzo[c][1,2,5]oxadiazol-5-yl)vinyl)benzamido)-N-(5-((3-imino-3-(4-methylpiperazin-1-yl)propyl)carbamoyl)-1-methyl-1H-pyrrol-3-yl)-1-methyl-1H-pyrrole-2-carboxamide]
MIC99 [9]: 25 to 50 µg/mL (≈ 37.7 to 75.4 µM) | % Normalised Fluorescence with gDNA [1]: 20% | % Normalised Fluorescence with polyAU RNA [2]: 5% | MIC80 [6]: < 5 µM | MIC80 [3]: < 5 µM | MIC99 [7]: 5 to 25 µg/mL (≈ 7.54 to 37.7 µM) | MIC80 [4]: > 100 µM

Cn1cc(NC(=O)c2cc(NC(=O)c3ccc(/C=C/c4cnc5ccccc5c4)cc3)cn2C)cc1C(=O)NCCC(=N)N1CCSCC1 [Ib7, (E)-N-(3-imino-3-thiomorpholinopropyl)-1-methyl-4-(1-methyl-4-(4-(2-(quinolin-3-yl)vinyl)benzamido)-1H-pyrrole-2-carboxamido)-1H-pyrrole-2-carboxamide]
MIC99 [9]: 5 to 25 µg/mL (≈ 7.41 to 37 µM) | % Normalised Fluorescence with gDNA [1]: 22% | % Normalised Fluorescence with polyAU RNA [2]: 7% | MIC80 [6]: < 5 µM | E. faecalis Selectivity Indices, Group [6, 10]: C (Group C: 5 < SI <= 10) | S. aureus Selectivity Indices, Group [3, 10]: D (D: SI > 10) | S. aureus Selectivity Index (SI) ([3]; SI, IC50 (μM)/MIC80 (μM), HEK293 cytotoxicity, numeric value): 26 | MIC80 [3]: < 5 µM | MIC99 [7]: 5 to 25 µg/mL (≈ 7.41 to 37 µM) | MIC80 [4]: > 100 µM | T. vaginalis Selectivity Indices, Group ([8]; Alkyl Amidines and NH Pyrroles): B (Group B: 8 < SI <= 16) | IC50 [8]: 1 to 5 µM

CC[N+](C)(C)CCNC(=O)c1cc(NC(=O)c2cc(NC(=O)c3ccc(/C=C/c4cnc5ccccc5c4)cc3)cn2C)cn1C [Ic1, (E)-N-ethyl-N,N-dimethyl-2-(1-methyl-4-(1-methyl-4-(4-(2-(quinolin-3-yl)vinyl)benzamido)-1H-pyrrole-2-carboxamido)-1H-pyrrole-2-carboxamido)ethan-1-aminium]
MIC99 [9]: 5 to 25 µg/mL | MIC80 [6]: < 5 µM | MIC80 [3]: < 5 µM | MIC99 [7]: 5 to 25 µg/mL | MIC80 [4]: > 100 µM | IC50 [8]: < 1 µM | MIC99 [5]: > 50 µg/mL

CCC[N+](C)(C)CCNC(=O)c1cc(NC(=O)c2cc(NC(=O)c3ccc(/C=C/c4cnc5ccccc5c4)cc3)cn2C)cn1C [Ic2, (E)-N,N-dimethyl-N-(2-(1-methyl-4-(1-methyl-4-(4-(2-(quinolin-3-yl)vinyl)benzamido)-1H-pyrrole-2-carboxamido)-1H-pyrrole-2-carboxamido)ethyl)propan-1-aminium]
MIC99 [9]: < 5 µg/mL | MIC80 [6]: < 5 µM | MIC80 [3]: < 5 µM | MIC99 [7]: 5 to 25 µg/mL | MIC80 [4]: > 100 µM | IC50 [8]: < 1 µM | MIC99 [5]: > 50 µg/mL

CCCCCC[N+](C)(C)CCNC(=O)c1cc(NC(=O)c2cc(NC(=O)c3ccc(/C=C/c4cnc5ccccc5c4)cc3)cn2C)cn1C [Ic5, (E)-N,N-dimethyl-N-(2-(1-methyl-4-(1-methyl-4-(4-(2-(quinolin-3-yl)vinyl)benzamido)-1H-pyrrole-2-carboxamido)-1H-pyrrole-2-carboxamido)ethyl)hexan-1-aminium]
MIC99 [9]: 5 to 25 µg/mL | MIC80 [6]: 5 to 25 µM | S. aureus Selectivity Indices, Group ([3]; SI, IC50 (μM)/MIC80 (μM), HEK293 cytotoxicity, Quaternary ammoniums): C (Group C: 5 < SI <= 10) | MIC80 [3]: < 5 µM | MIC80 [4]: > 100 µM | T. vaginalis Selectivity Indices, Group ([8]; Quaternary ammoniums): B (Group B: 0.8 < SI <= 1.5) | IC50 [8]: 1 to 5 µM | MIC99 [5]: > 50 µg/mL

CCCCCCCCCCCCCCC[N+](C)(C)CCNC(=O)c1cc(NC(=O)c2cc(NC(=O)c3ccc(/C=C/c4cnc5ccccc5c4)cc3)cn2C)cn1C [Ic14, (E)-N,N-dimethyl-N-(2-(1-methyl-4-(1-methyl-4-(4-(2-(quinolin-3-yl)vinyl)benzamido)-1H-pyrrole-2-carboxamido)-1H-pyrrole-2-carboxamido)ethyl)pentadecan-1-aminium]
MIC99 [9]: 25 to 50 µg/mL | MIC99 [7]: > 50 µg/mL | IC50 [8]: 5 to 50 µM | MIC99 [5]: > 50 µg/mL

CCCCCCCCCCCCCCCC[N+](C)(C)CCNC(=O)c1cc(NC(=O)c2cc(NC(=O)c3ccc(/C=C/c4cnc5ccccc5c4)cc3)cn2C)cn1C [Ic15, (E)-N,N-dimethyl-N-(2-(1-methyl-4-(1-methyl-4-(4-(2-(quinolin-3-yl)vinyl)benzamido)-1H-pyrrole-2-carboxamido)-1H-pyrrole-2-carboxamido)ethyl)hexadecan-1-aminium]
MIC99 [9]: > 50 µg/mL | MIC99 [7]: 25 to 50 µg/mL | IC50 [8]: 5 to 50 µM | MIC99 [5]: > 50 µg/mL
